Assay results from PMC2374555, “Inhibition of aromatase activity and expression in MCF-7 cells by the chemopreventive retinoid N -(4-hydroxy-phenyl)-retinamide” (British Journal of Cancer, 2000).

Molecular target: T1, aromatase (Homo sapiens, UniProt P11511)
T1 construct: gene CYP19A1; microsomes isolated from JEG-3 human choriocarcinoma cells
T1 sequence (P11511 1-503): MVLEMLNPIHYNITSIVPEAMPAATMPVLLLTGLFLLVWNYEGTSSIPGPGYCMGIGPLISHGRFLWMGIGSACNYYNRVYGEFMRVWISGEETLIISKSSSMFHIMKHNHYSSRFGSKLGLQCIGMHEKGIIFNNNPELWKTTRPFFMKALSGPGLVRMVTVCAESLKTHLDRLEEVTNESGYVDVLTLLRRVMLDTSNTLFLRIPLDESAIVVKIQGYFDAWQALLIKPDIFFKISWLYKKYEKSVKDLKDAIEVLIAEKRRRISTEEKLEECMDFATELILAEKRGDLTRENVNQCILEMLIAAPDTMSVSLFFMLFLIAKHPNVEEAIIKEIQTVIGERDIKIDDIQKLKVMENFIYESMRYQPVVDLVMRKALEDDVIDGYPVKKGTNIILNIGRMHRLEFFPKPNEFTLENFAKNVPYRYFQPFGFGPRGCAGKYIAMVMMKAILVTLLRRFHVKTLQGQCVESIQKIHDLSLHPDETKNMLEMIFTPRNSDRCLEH
Assay: 3H2O release aromatase assay in JEG-3 microsomes, Lineweaver-Burk kinetics; also intact MCF-7 cells
Type: biochemical

## CC1=C(/C=C/C(C)=C/C=C/C(C)=C/C(=O)Nc2ccc(O)cc2)C(C)(C)CCC1 [4-HPR, N-(4-hydroxyphenyl)-retinamide]
  IC50: 1000 nM
